From patent publication US20170042991A1, “COMPOSITIONS COMPRISING GLUTEN PEPTIDES AND USES THEREOF” (ImmusanT, Inc., priority 2014, published 2017)
Non-standard residues stand in square brackets, D forms with d. pGlu = O=C1CC[C@@H](C(=O)O)N1

Legend:
Type in all cases: cell-based, human
PBMC = assay: IFN-gamma ELISpot of PBMC, Day-6 after gluten challenge (Example 1); conditions: DQ2.5+ CD
whole blood [1] = assay: 96-well plate whole blood multiplex cytokine release, IP-10 (MAGPIX bead assay, Example 2); conditions: for Percent of maximal response, IP-10: after oral gluten challenge; for IP-10 WB MAGPIX % max Mean: individual peptides 5 μM, Day-6, n = 10, Peptide 2 = CSBio batch
gluten-reactive T cells = assay: Cytokine release assays taken together (IFNγ ELISpot, whole blood IFNγ and IP-10 release); conditions: for relative activity among individual peptides tested: blood collected after oral gluten challenge, HLA-DQ2.5+ subjects
Procedure: Gluten peptide solutions for addition to whole blood were arranged according to standardized templates in sterile 96-well U-bottom plates (30 μL/well). Plates were sealed with adhesive ELISA plate cover slips before the plastic lid was replaced and being frozen at −80° C. Whole blood assay (WBA) “medium” (1% DMSO in 90% PBS and 9% normal saline), mitogen (PHA-L, Sigma-Aldrich #L2769; St Louis Mo.) 100 μg/ml in WBA medium, and CEF diluted to 10 μg/ml in PBS with a final concentration of 1% DMSO were frozen separately in sterile cryovials. 96-well plates and cryovials with frozen incubation solutions were shipped on dry ice to the clinical site where blood was collected and incubations performed. Solutions were thawed at room temperature for 10 min just before being added to whole blood. 96-well plates were thawed while being centrifuged at 300 g to avoid surface condensation. A multi-channel pipette was used to efficiently transfer 25 μL of peptide solutions from the original 96-well plate to corresponding wells in a fresh sterile 96-well U-bottom plate. Once incubation solutions had been added, 225 μL of whole blood was added to each well and the plate transferred to incubate for 24 h at 37° C. 5% CO2. […] Individual peptides were incubated at a final assay concentration of 5 μM. Final concentrations of individual peptides assessed in P3 was 0.05-50 μg/mL, and in P14 and P13 pools 0.025-25 μM. The P71 pool was tested at between 0.005-10 μg/mL, the highest tested concentration being the maximal possible not exceeding 0.1% DMSO. Peptide pools, mitogen, and medium only were assessed in triplicate wells, and on Day-6 individual peptides were assessed in duplicate wells. Incubations were terminated after 24 h, and 96-well plates centrifuged at 300 g for 10 min. A total of approximately 90 to 120 μL of plasma was removed from each well taking care to avoid red cell contamination, and transferred into corresponding wells of two further 96-well plates (one with 30 μL/well and the residual in the second plate). Plasmas were frozen at −80° C. and later shipped on dry ice to the central lab where IP-10 and IFNγ multiplex bead assays were performed according to manufacturer's instructions using 25 μL plasma per well (Milliplex® MAP Human Cytokine/Chemokine Magnetic Bead Panel #HCYTOMAG-60k-02; EMD Millipore Corp., Billerica, Mass. 01821) and analysed with the Luminex® MAGPIX® System xPONENT® software (Luminex Corporation, Austin Tex. 78727). Plasma cytokine levels for each assay condition were expressed as the mean analyte concentration of each of the three replicate incubations. Laboratory staff were unaware of the arrangement of peptide solutions incubated with during assay setup and plate counting. […]

whole blood [2] = assay: 96-well plate whole blood multiplex cytokine release, IFNγ (MAGPIX bead assay, Example 2); conditions: for Percent of maximal response, IFNg: after oral gluten challenge; for IFNγ WB MAGPIX % max Mean: individual peptides 5 μM, Day-6, n = 8, Peptide 2 = CSBio batch

Substance	Peptide-specific IFN-gamma ELISpot response (PBMC; Subject 1, 10 ug/ml)	Peptide-specific IFN-gamma ELISpot response (PBMC; Subject 2, 10 ug/ml)	Peptide-specific IFN-gamma ELISpot response (PBMC; Subject 3, 10 ug/ml)	Peptide-specific IFN-gamma ELISpot response (PBMC; Subject 4, 10 ug/ml)	Peptide-specific IFN-gamma ELISpot response (PBMC; Subject 5, 10 ug/ml)	Peptide-specific IFN-gamma ELISpot response (PBMC; Subject 6, 10 ug/ml)	Peptide-specific IFN-gamma ELISpot response (PBMC; Subject 7, 10 ug/ml)	Peptide-specific IFN-gamma ELISpot response (PBMC; Subject 8, 10 ug/ml)	Peptide-specific IFN-gamma ELISpot response (PBMC; Subject 9, 10 ug/ml)	Peptide-specific IFN-gamma ELISpot response (PBMC; Subject 10, 10 ug/ml)	Percent of maximal response, IP-10 (whole blood [1]; Subject 1, Max. 2331 pg/mL)	Percent of maximal response, IP-10 (whole blood [1]; Subject 2, Max. 3646 pg/mL)	Percent of maximal response, IP-10 (whole blood [1]; Subject 3, Max. 9492 pg/mL)	Percent of maximal response, IP-10 (whole blood [1]; Subject 4, Max. 9463 pg/mL)	Percent of maximal response, IP-10 (whole blood [1]; Subject 5, Max. 9336 pg/mL)	Percent of maximal response, IP-10 (whole blood [1]; Subject 6, Max. 5863 pg/mL)	Percent of maximal response, IP-10 (whole blood [1]; Subject 7, Max. 2330 pg/mL)	Percent of maximal response, IP-10 (whole blood [1]; Subject 8, Max. 4019 pg/mL)	Percent of maximal response, IP-10 (whole blood [1]; Subject 9, Max. 8349 pg/mL)	Percent of maximal response, IP-10 (whole blood [1]; Subject 10, Max. 8922 pg/mL)	also measured
(pE)LQPFPQPELPYPQPQ-amide ([pGlu]LQPFPQPELPYPQPQ-NH2; SMILES CC(C)C[C@H](NC(=O)[C@@H]1CCC(=O)N1)C(=O)N[C@@H](CCC(N)=O)C(=O)N1CCC[C@H]1C(=O)N[C@@H](Cc1ccccc1)C(=O)N1CCC[C@H]1C(=O)N[C@@H](CCC(N)=O)C(=O)N1CCC[C@H]1C(=O)N[C@@H](CCC(=O)O)C(=O)N[C@@H](CC(C)C)C(=O)N1CCC[C@H]1C(=O)N[C@@H](Cc1ccc(O)cc1)C(=O)N1CCC[C@H]1C(=O)N[C@@H](CCC(N)=O)C(=O)N1CCC[C@H]1C(=O)N[C@@H](CCC(N)=O)C(N)=O) [Peptide 1]	2 spot forming units per 0.8 million PBMC	4 spot forming units per 0.8 million PBMC	2 spot forming units per 0.8 million PBMC	8 spot forming units per 0.8 million PBMC	0 spot forming units per 0.8 million PBMC	4 spot forming units per 0.8 million PBMC	1 spot forming units per 0.8 million PBMC	0 spot forming units per 0.8 million PBMC	0 spot forming units per 0.8 million PBMC	1 spot forming units per 0.8 million PBMC	100 % of max	100 % of max	≥ 100 % of max	96 % of max	14 % of max	23 % of max	39 % of max	3 % of max	75 % of max	34 % of max	IP-10 WB MAGPIX % max Mean (whole blood [1]): 58 % max; relative activity among individual peptides tested (gluten-reactive T cells): most active of this group of related peptides; activity as a fraction of that of Peptide 14 (gluten-reactive T cells; three cytokine release assays): no more than two-thirds; Percent of maximal response, IFNg (whole blood [2]; Subject 2, Max. 116 pg/mL): 100 % of max; Percent of maximal response, IFNg (whole blood [2]; Subject 3, Max. 799 pg/mL): 14 % of max; Percent of maximal response, IFNg (whole blood [2]; Subject 4, Max. 136 pg/mL): 26 % of max; Percent of maximal response, IFNg (whole blood [2]; Subject 6, Max. 72 pg/mL): 25 % of max; Percent of maximal response, IFNg (whole blood [2]; Subject 7, Max. 17 pg/mL): 43 % of max; Percent of maximal response, IFNg (whole blood [2]; Subject 8, Max. 47 pg/mL): 6 % of max; Percent of maximal response, IFNg (whole blood [2]; Subject 9, Max. 67 pg/mL): 43 % of max; Percent of maximal response, IFNg (whole blood [2]; Subject 10, Max. 229 pg/mL): 7 % of max; IFNγ WB MAGPIX % max Mean (whole blood [2]): 33 % max
(pE)PEQPIPEQPQPYPQQ-amide ([pGlu]PEQPIPEQPQPYPQQ-NH2; SMILES CC[C@H](C)[C@H](NC(=O)[C@@H]1CCCN1C(=O)[C@H](CCC(N)=O)NC(=O)[C@H](CCC(=O)O)NC(=O)[C@@H]1CCCN1C(=O)[C@@H]1CCC(=O)N1)C(=O)N1CCC[C@H]1C(=O)N[C@@H](CCC(=O)O)C(=O)N[C@@H](CCC(N)=O)C(=O)N1CCC[C@H]1C(=O)N[C@@H](CCC(N)=O)C(=O)N1CCC[C@H]1C(=O)N[C@@H](Cc1ccc(O)cc1)C(=O)N1CCC[C@H]1C(=O)N[C@@H](CCC(N)=O)C(=O)N[C@@H](CCC(N)=O)C(N)=O) [Peptide 3]	0 spot forming units per 0.8 million PBMC	1 spot forming units per 0.8 million PBMC	9 spot forming units per 0.8 million PBMC	30 spot forming units per 0.8 million PBMC	0 spot forming units per 0.8 million PBMC	11 spot forming units per 0.8 million PBMC	1 spot forming units per 0.8 million PBMC	9 spot forming units per 0.8 million PBMC	3 spot forming units per 0.8 million PBMC	1 spot forming units per 0.8 million PBMC	51 % of max	14 % of max	≥ 100 % of max	≥ 100 % of max	53 % of max	43 % of max	5 % of max	100 % of max	85 % of max	≥ 100 % of max	IP-10 WB MAGPIX % max Mean (whole blood [1]): 65 % max; whole blood IP-10 release compared with that stimulated by Peptide 14 (whole blood [1]; whole blood incubations): one-quarter less; relative activity among individual peptides tested (gluten-reactive T cells): consistently the second most active peptide after Peptide 14; Percent of maximal response, IFNg (whole blood [2]; Subject 2, Max. 116 pg/mL): 35 % of max; Percent of maximal response, IFNg (whole blood [2]; Subject 3, Max. 799 pg/mL): 92 % of max; Percent of maximal response, IFNg (whole blood [2]; Subject 4, Max. 136 pg/mL): 66 % of max; Percent of maximal response, IFNg (whole blood [2]; Subject 6, Max. 72 pg/mL): 63 % of max; Percent of maximal response, IFNg (whole blood [2]; Subject 7, Max. 17 pg/mL): 6 % of max; Percent of maximal response, IFNg (whole blood [2]; Subject 8, Max. 47 pg/mL): 89 % of max; Percent of maximal response, IFNg (whole blood [2]; Subject 9, Max. 67 pg/mL): 60 % of max; Percent of maximal response, IFNg (whole blood [2]; Subject 10, Max. 229 pg/mL): 81 % of max; IFNγ WB MAGPIX % max Mean (whole blood [2]): 62 % max; whole blood IFNγ release compared with that stimulated by Peptide 14 (whole blood [2]; whole blood incubations): one-third less
